Experimental data reported in PubChem BioAssay (NCI).
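Step 1: Grow cells in 96-well plates. Step 2: Expose to compound for 48 hours at 5 concentrations. Step 3: Interpolate endpoints linearly; if unreached, use highest concentration. GI50 is the concentration that inhibits growth by half. The concentration for full growth arrest is given as TGI.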

Tests used:
Experiment in all cases: NCI tumour cell line growth inhibition, 48 h
[1] = system: 786-0 renal
[2] = system: CCRF-CEM leukemia
[3] = system: EKVX NSCLC
[4] = system: KM12 colon
[5] = system: MDA-MB-435
[6] = system: MOLT-4 leukemia
[7] = system: NCI-H522 lung
[8] = system: OVCAR-3 ovarian
[9] = system: OVCAR-8 ovarian
[10] = system: SF-268 CNS

In the case of `Cc1ccc(N=Nc2c(O)ccc3ccccc23)cc1`, the TGI [1] is reported as over 100 µM, the TGI [2] is reported as 75.8 µM and the TGI [3] is reported as over 100 µM. For the same molecule, the TGI [4] was over 100 µM, the TGI [5] was over 100 µM and the TGI [6] was over 100 µM. For the same molecule, the TGI [7] was over 100 µM, the TGI [8] was over 100 µM and the TGI [9] was over 100 µM. The TGI [10] was over 100 µM.
`Cc1cc(O)c(C2=NN(c3ccc(S(N)(=O)=O)cc3)C(c3ccc(Cl)cc3)C2)c(C)c1Cl` (configuration not stated) showed a GI50 [1] of 4970 nM, a TGI [1] of 17.4 µM and a GI50 [2] of 3640 nM. The TGI [2] was 13.5 µM, the GI50 [3] was 1880 nM and the TGI [3] was 13.6 µM. It also gave a GI50 [4] of 2800 nM, a TGI [4] of 10.6 µM and a GI50 [5] of 3570 nM. For the same molecule, the TGI [5] was 14.8 µM, the GI50 [6] was 1940 nM and the TGI [6] was 7.25 µM. For the same molecule, the GI50 [7] was 6240 nM, the TGI [7] was 21.6 µM and the GI50 [8] was 4210 nM. For the same molecule, the TGI [8] was 15.7 µM, the GI50 [9] was 5750 nM and the TGI [9] was 21.6 µM. It also gave a GI50 [10] of 5760 nM and a TGI [10] of 19.4 µM.
`COc1cc(C)c(C2NC(=O)c3ccccc3N2)cc1C` (configuration not stated) was tested, and the TGI [1] was over 100 µM, the TGI [2] was 18.1 µM and the TGI [3] was over 100 µM. For the same molecule, the TGI [4] was over 100 µM, the TGI [5] was 0.209 µM and the TGI [6] was 35.8 µM. It also gave a TGI [7] of 0.713 µM, a TGI [8] of 0.518 µM and a TGI [9] of over 66.5 µM. It also gave a TGI [10] of over 100 µM.
In the case of `c1ccc2c(-c3nc(-c4c[nH]c5ccncc45)cs3)c[nH]c2c1`, the GI50 [1] is reported as 1890 nM, the TGI [1] is reported as 3.44 µM and the GI50 [2] is reported as 1440 nM. For the same molecule, the TGI [2] was 3.52 µM, the GI50 [3] was 1780 nM and the TGI [3] was 4.61 µM. For the same molecule, the GI50 [4] was 2020 nM, the TGI [4] was 4.4 µM and the GI50 [5] was 1750 nM. It also gave a TGI [5] of 3.23 µM, a GI50 [7] of 1920 nM and a TGI [7] of 3.92 µM. It also gave a GI50 [8] of 1980 nM, a TGI [8] of 3.98 µM and a GI50 [9] of 1970 nM. It also gave a TGI [9] of 4.33 µM, a GI50 [10] of 2510 nM and a TGI [10] of 7.96 µM.
Molecule `O=C(Nc1ccc(-c2nc(-c3cccc(OCCN4CCOCC4)c3)c(-c3ccnc(Br)c3)[nH]2)cc1)c1ccccc1` has a GI50 [1] of 741 nM, a TGI [1] of 2.39 µM and a GI50 [2] of 2180 nM. It also gave a TGI [2] of over 100 µM, a GI50 [3] of 2010 nM and a TGI [3] of 6.97 µM. The GI50 [5] was 1690 nM, the TGI [5] was 3.76 µM and the GI50 [6] was 784 nM. It also gave a TGI [6] of over 100 µM, a GI50 [7] of 3690 nM and a TGI [7] of over 100 µM. It also gave a GI50 [8] of 4270 nM, a TGI [8] of over 100 µM and a GI50 [9] of 3960 nM. It also gave a TGI [9] of over 100 µM, a GI50 [10] of 3820 nM and a TGI [10] of over 100 µM.
With `O=C(Oc1ccc(CO[N+](=O)[O-])cc1)c1ccccc1` the GI50 [1] was 94.5 nM, the TGI [1] was 0.235 µM and the GI50 [2] was 32.4 nM. For the same molecule, the TGI [2] was 0.173 µM, the GI50 [3] was 407 nM and the TGI [3] was 1.59 µM. The GI50 [4] was 163 nM, the TGI [4] was 0.33 µM and the GI50 [5] was 157 nM. It also gave a TGI [5] of 0.307 µM, a GI50 [7] of 158 nM and a TGI [7] of 0.318 µM. It also gave a GI50 [8] of 153 nM, a TGI [8] of 0.295 µM and a GI50 [9] of 153 nM. The TGI [9] was 0.288 µM, the GI50 [10] was 167 nM and the TGI [10] was 0.317 µM.
`CCOc1c(N=Nc2ccccc2Cl)c(-c2ccccc2)nn1C(=S)S` showed a TGI [1] of over 100 µM, a TGI [3] of over 100 µM and a TGI [4] of over 100 µM. The TGI [5] was over 100 µM, the TGI [6] was 58.2 µM and the TGI [7] was 89.9 µM. It also gave a TGI [8] of 90.1 µM, a TGI [9] of over 100 µM and a TGI [10] of over 100 µM.
Molecule `Cc1cc(N=C2C=C(Br)C(=O)C(Br)=C2)cc(CN(CC(=O)O)CC(=O)O)c1O` has a TGI [1] of over 100 µM, a TGI [2] of over 100 µM and a TGI [3] of over 100 µM. The TGI [5] was over 100 µM, the TGI [6] was over 100 µM and the TGI [7] was over 100 µM. For the same molecule, the TGI [8] was over 100 µM, the TGI [9] was over 100 µM and the TGI [10] was over 100 µM.
`COc1cc2c(cc1OCCCCCCN1CCN(CC(=O)Nc3ccc(Cl)cc3C(=O)c3ccccc3Cl)CC1)N=CC1CCCN1C2=O` (configuration not stated) was tested, and the GI50 [1] was 339 nM, the TGI [1] was 0.823 µM and the GI50 [3] was 477 nM. It also gave a TGI [3] of 1.14 µM, a GI50 [5] of 157 nM and a TGI [5] of 0.304 µM. It also gave a GI50 [6] of 167 nM, a TGI [6] of 0.426 µM and a GI50 [7] of 143 nM. The TGI [7] was 0.322 µM, the GI50 [8] was 189 nM and the TGI [8] was 0.396 µM. The GI50 [9] was 201 nM and the TGI [9] was 0.607 µM.
In the case of `C1CC[N-]CC1.CC(=N\O)/C(C)=N/O.CC(=N\O)/C(C)=N/O.OC1[CH-]CCCC1.[Co+2]`, the GI50 [1] is reported as 61800 nM, the TGI [1] is reported as over 100 µM and the GI50 [3] is reported as 31100 nM. The TGI [3] was over 100 µM, the GI50 [4] was over 100000 nM and the TGI [4] was over 100 µM. The GI50 [5] was 33900 nM, the TGI [5] was over 100 µM and the GI50 [6] was 26400 nM. For the same molecule, the TGI [6] was 99.1 µM, the GI50 [7] was 15700 nM and the TGI [7] was 31 µM. For the same molecule, the GI50 [8] was 52000 nM, the TGI [8] was over 100 µM and the GI50 [9] was 28900 nM. For the same molecule, the TGI [9] was over 100 µM, the GI50 [10] was 44800 nM and the TGI [10] was over 100 µM.
In the case of `COc1cc2c(cc1OC)C(=O)/C(=C/c1cc(-c3ccc4c(c3)OCO4)n[nH]1)C2`, the GI50 [1] is reported as 1610 nM, the TGI [1] is reported as 2.99 µM and the GI50 [2] is reported as 1140 nM. For the same molecule, the TGI [2] was 3.61 µM, the GI50 [4] was 1290 nM and the TGI [4] was 2.73 µM. It also gave a GI50 [5] of 1730 nM, a TGI [5] of 3.27 µM and a GI50 [6] of 2570 nM. It also gave a TGI [6] of 6.97 µM, a GI50 [7] of 258 nM and a TGI [7] of 0.871 µM. For the same molecule, the GI50 [8] was 1410 nM, the TGI [8] was 2.8 µM and the GI50 [9] was 1570 nM. It also gave a TGI [9] of 3.05 µM, a GI50 [10] of 1630 nM and a TGI [10] of 3.37 µM.
`C#Cc1nc2ccccc2c(=O)[nH]1` showed a GI50 [1] of 582 nM, a TGI [1] of 2.12 µM and a GI50 [2] of 237 nM. It also gave a TGI [2] of 0.721 µM, a GI50 [4] of 1390 nM and a TGI [4] of 2.94 µM. For the same molecule, the GI50 [5] was 510 nM, the TGI [5] was 2.13 µM and the GI50 [6] was 316 nM. The TGI [6] was 0.994 µM, the GI50 [7] was 765 nM and the TGI [7] was 2.18 µM. The GI50 [8] was 262 nM, the TGI [8] was 0.643 µM and the GI50 [9] was 897 nM. It also gave a TGI [9] of 8.19 µM, a GI50 [10] of 1540 nM and a TGI [10] of 4.57 µM.
For `COC(=O)C1=C(C(=O)OC)C2(C)C=CC1O2` (configuration not stated), the TGI [1] was 14.4 µM, the TGI [3] was 41.3 µM and the TGI [5] was 33.2 µM. It also gave a TGI [7] of 5.56 µM, a TGI [8] of 2.86 µM and a TGI [9] of 31.7 µM. The TGI [10] was over 100 µM.
`c1ccc(-c2nc(N3CCOCC3)c3c4c(sc3n2)CCCCCC4)nc1` was tested, and the GI50 [1] was 11700 nM, the TGI [1] was 32.8 µM and the GI50 [2] was 3590 nM. For the same molecule, the TGI [2] was 18.9 µM, the GI50 [4] was 4280 nM and the TGI [4] was 16.1 µM. The GI50 [5] was 4820 nM, the TGI [5] was 17.7 µM and the GI50 [6] was 3770 nM. For the same molecule, the TGI [6] was 17 µM, the GI50 [7] was 5850 nM and the TGI [7] was 20.2 µM. It also gave a GI50 [8] of 4600 nM, a TGI [8] of 16.2 µM and a GI50 [9] of 5080 nM. For the same molecule, the TGI [9] was 30.5 µM, the GI50 [10] was 8820 nM and the TGI [10] was 22.6 µM.
With `O=c1[nH]c2ccccc2n1CCCN1CCC(n2c(=O)[nH]c3cc(Cl)ccc32)CC1` the TGI [1] was 30 µM, the TGI [2] was over 100 µM and the TGI [3] was 42.7 µM. It also gave a TGI [4] of 30.6 µM, a TGI [5] of 29.7 µM and a TGI [6] of 45.1 µM. It also gave a TGI [7] of 29.7 µM, a TGI [8] of 38.9 µM and a TGI [9] of 38.6 µM.
`COc1ccc(C(=O)NNc2nc(Cl)nc(N3CCN(C(c4ccccc4)c4ccccc4)CC3)n2)cc1` gave a GI50 [1] of 3370 nM, a TGI [1] of 12.9 µM and a GI50 [2] of 1250 nM. It also gave a TGI [2] of 4.12 µM, a GI50 [3] of 3430 nM and a TGI [3] of 14.8 µM. The GI50 [4] was over 100000 nM, the TGI [4] was over 100 µM and the GI50 [5] was 3580 nM. The TGI [5] was 13 µM, the GI50 [6] was 1640 nM and the TGI [6] was 5.15 µM. The GI50 [8] was 1890 nM, the TGI [8] was 3.45 µM and the GI50 [9] was 1890 nM. For the same molecule, the TGI [9] was 4.36 µM, the GI50 [10] was 2010 nM and the TGI [10] was 4.31 µM.
